These results are taken from US20240299376A1, “METHOD OF TREATING A CONDITION USING A […] EFFECTIVE DOSE OF 1-(1-OXO-1,2-DIHYDROISOQUINOLIN-5-YL)-5-(TRIFLUOROMETHYL)-N-(2-(TRIFLUOROMETHYL)PYRIDIN-4-YL)-1H-PYRAZOLE-4-CARBOXAMIDE” (Janssen Pharmaceutica NV, priority 2021, published 2024).

Data set [1] concerns IL-6 secretion by OCI-LY3 ABC-DLBCL cells. Briefly: IL-6 secretion assay (MesoScale Discovery). Format: cell-based. Conditions: Homo sapiens; supernatants of OCI-LY3 cells, 16 independent experiments. The protocol:
NF-κB signaling regulates the secretion of multiple cytokines, including interleukin (IL)-6 and IL-10. Libermann T A et al. Mol Cell Biol. 1990; 10(6):3155-3162; and Cao S, et al. J Biol Chem. 2006; 281(36):26041-26050. Secretion of the cytokines IL-6 and IL-10 by OCI-LY3 ABC-DLBCL cells was measured using a MesoScale Discovery (MSD) assay.

Another data set in a line: Single IV dose plasma PK. The data set is classed as in vivo, mouse. The protocol:
Single intravenous (IV) dose PK was conducted in mice (two strains), rats, monkeys, and dogs at a dose of 1 mg/kg in 70% PEG400 (PEG400/water 70:30) by bolus injection. The time course for plasma sample was optimized to fully characterize the disposition profile in each species. PK analysis was by non-compartmental method.

Data set [2] can be described thus: Pharmacokinetic modeling and simulations to predict the human dose. Conditions: corresponds to mouse trough at 10 mg/kg BID after accounting for protein binding difference mice/human. As to the method:
According to the tested scenario, the minimum predicted efficacious dose is approximately 110 mg given once daily.
The pharmacokinetic modeling was used based on available non-clinical pharmacokinetic data and allometric scaling. In addition, modeling using GastroPlus and SimCYP was also used to guide PK parameter prediction.

Setting [3] is: male, plasma, Mouse, CD-1, 3M, 1 mg/kg IV in 70% PEG400, mean.
[4] abbreviates: male, plasma, Mouse, NSG, 3M, 1 mg/kg IV in 70% PEG400, mean.

Where two headings read alike, the source gives them in different places.

For the molecule `O=C(Nc1ccnc(C(F)(F)F)c1)c1cnn(-c2cccc3c(=O)[nH]ccc23)c1C(F)(F)F` [Compound A, 1-(1-oxo-1,2-dihydroisoquinolin-5-yl)-5-(trifluoromethyl)-N-[2-(trifluoromethyl)pyridin-4-yl]-1H-pyrazole-4-carboxamide], the IC50 – broadly, the concentration at which inhibition is half-maximal – in data set [1] was determined as 114 ± 41 nM. For the same molecule, the Vd in the data set “Single IV dose plasma PK” (CD-1 and NSG (mouse), Sprague-Dawley (rat), beagle (dog), plasma, similar across all species (mouse, rat, monkey, dog), IV 1 mg/kg, read-out: apparent volume of distribution at steady state) was roughly 1 L/kg. In the data set “Single IV dose plasma PK” (setting [3]), the AUC(0-inf) (commonly total exposure, with the tail of the curve extrapolated) amounted to 12200 ng·h/mL; the C0 worked out at 940 ng/mL; the clearance – broadly, a measure of how efficiently the substance is removed, as volume per time – amounted to 1.3 mL/min/kg. Also, the Vd in “Single IV dose plasma PK” (male, plasma, Mouse, CD-1, 3M, 1 mg/kg IV in 70% PEG400, mean, read-out: Vdss) came out at 1.4 L/kg. Moreover, in “Single IV dose plasma PK” (setting [4]), the AUC(0-inf) was found to be 5490 ng·h/mL; the C0 worked out at 1130 ng/mL; the clearance amounted to 3.04 mL/min/kg; the half-life – broadly, the time needed for the level to fall by half in the phase considered – is 5.28 h. Also, in “Single IV dose plasma PK” (male, plasma, Mouse, NSG, 3M, 1 mg/kg IV in 70% PEG400, mean, read-out: Vdss), the Vd was determined as 1.23 L/kg. Further, the “CL as fraction of liver blood flow (LBF)” value in the data set “Single IV dose plasma PK” (mouse, LBF 90 mL/min/kg) is reported as 1.4%. Besides, in data set [2], the “Ctrough at steady state targeted in humans” value was 4640 ng/mL.
